# Data taken from patent publication US20120077802A1 (SUNOVION PHARMACEUTICALS INC., priority 2009, published 2012).
# Biological target: T1, human histamine H3 receptor (Homo sapiens, UniProt Q9Y5N1)
# T1 construct: host or cells: cells expressing the human H3 receptor
# Test: H3 GTPγS assay (SPA method), histamine H3 in vitro assay
# Format: biochemical
# Conditions: GTPγ[35S] SPA, membranes of cells expressing human H3 receptor; in one embodiment HCl salts tested; read-out: Potency (functional potency as indicated by IC50)
# Method: H3 GTPγS assay (SPA method) was performed at EuroScreen (Belgium, ES-392-C) using conventional methods. Briefly, cells expressing the human histamine H3 receptor were homogenized in 15 mM Tris-HCl pH 7.5, 2 mM MgCl2, 0.3 mM EDTA, and 1 mM EGTA. Membranes were washed twice in the above tris buffer, collected by centrifugation (40,000×g, 25 min), and re-suspended in 75 mM Tris-HCl pH 7.5, 12.5 mM MgCl2, 0.3 mM EDTA, 1 mM EGTA, and 250 mM sucrose. Membranes were frozen in liquid nitrogen until use. On the day of the assay, membranes were thawed and diluted in assay buffer (20 mM HEPES pH 7.4, 100 mM NaCl, 10 μg/ml saponin, 1 mM MgCl2) to give 500 μg/ml and mixed (v/v) with GDP in assay buffer for a final GDP concentration of 10 μM and incubated on ice for at least 15 min. PVT-WGA beads (Amersham, RPNQ001) were diluted in assay buffer at 50 mg/mL and mixed with GTPγ[^35S] (Amersham, SJ1308) diluted in assay buffer to give ˜25,000 dpm/10 μL, and mixed vol/vol just before the start of the reaction. The reaction was started by adding 50 μL of test compound, 20 μL of the membranes:GDP mix, 10 μL of buffer, and 20 μL of the GTPγ[^35S]:beads mix in a 96 well plate Optiplate™ (PerkinElmer, 6005299) covered with topseal (TopCount™, PerkinElmer), mixed with an orbital shaker for 2 min, incubated for 1 hour at room temperature, centrifuged for 10 min at 2000 rpm, incubated for 1 h at room temperature, and counted for 1 min in a TopCount™ reader (PerkinElmer). Dose response curves and IC50 values (concentration to inhibit the reaction by 50%) were calculated by nonlinear regression using XLfit software (IDBS).
# For antagonists testing, 10 μL of a reference agonist (R-γ-Me-Histamine) instead of 10 μL buffer was added at a concentration corresponding to the EC80 (30 nM). Control ligands were R-γ-Me-Histamine (Tocris, 0569), Imetit (Sigma, I-135), Thioperamide (Tocris, 0644), and Clobenpropit (Tocris, 0754) diluted in assay buffer.
# The compounds provided herein were tested in the histamine H3 in vitro assay. In one embodiment, the respective HCl salts of the compounds provided herein were prepared using standard chemical procedures and tested in the histamine H3 in vitro assay.
# T1 sequence (Q9Y5N1 whole entry): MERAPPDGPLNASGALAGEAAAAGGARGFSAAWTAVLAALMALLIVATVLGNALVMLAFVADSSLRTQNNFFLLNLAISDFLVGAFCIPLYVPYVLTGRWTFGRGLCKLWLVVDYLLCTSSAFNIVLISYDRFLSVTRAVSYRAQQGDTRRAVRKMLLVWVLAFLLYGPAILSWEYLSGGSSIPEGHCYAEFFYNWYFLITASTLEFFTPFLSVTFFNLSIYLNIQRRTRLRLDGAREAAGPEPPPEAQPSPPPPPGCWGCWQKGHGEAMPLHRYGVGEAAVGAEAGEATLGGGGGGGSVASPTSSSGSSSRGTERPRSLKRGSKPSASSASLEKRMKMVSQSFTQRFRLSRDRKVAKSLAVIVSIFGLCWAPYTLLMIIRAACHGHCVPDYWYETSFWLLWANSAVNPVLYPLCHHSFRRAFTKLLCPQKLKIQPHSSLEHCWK
row,IC50,Compound
1,≤ 1000 nM,"Brc1ccc2c(c1)CC1(CCN(C3CCC3)CC1)O2 [Compound 23, 5-Bromo-1′-cyclobutyl-3H-spiro[benzofuran-2,4′-piperidine]]"
2,≤ 1000 nM,"CN1CCC(N2CCC3(CC2)Cc2cc(Br)ccc2O3)CC1 [Compound 24, 5-Bromo-1′-(1-methylpiperidin-4-yl)-3H-spiro[benzofuran-2,4′-piperidine]]"
3,≤ 1000 nM,"CC(C1CCC1)N1CCC2(CC1)Cc1cc(Br)ccc1O2 (centres unmarked) [Compound 25, 5-Bromo-1′-(1-cyclobutylethyl)-3H-spiro[benzofuran-2,4′-piperidine]]"
4,≤ 100 nM,"c1cc2c(cc1-c1cn[nH]c1)CC1(CCN(C3CCC3)CC1)O2 [Compound 27, 1′-Cyclobutyl-5-(1H-pyrazol-4-yl)-3H-spiro[benzofuran-2,4′-piperidine]]"
5,≤ 100 nM,"COc1ccnc(-c2ccc3c(c2)CC2(CCN(C4CCC4)CC2)O3)n1 [Compound 28, 1′-Cyclobutyl-5-(4-methoxypyrimidin-2-yl)-3H-spiro[benzofuran-2,4′-piperidine]]"
6,≤ 10 nM,"c1cnc(-c2ccc3c(c2)CC2(CCN(C4CCC4)CC2)O3)cn1 [Compound 29, 1′-Cyclobutyl-5-(pyrazin-2-yl)-3H-spiro[benzofuran-2,4′-piperidine]]"
7,≤ 10 nM,"c1cn(-c2ccc3c(c2)CC2(CCN(C4CCC4)CC2)O3)cn1 [Compound 31, 1′-Cyclobutyl-5-(1H-imidazol-1-yl)-3H-spiro[benzofuran-2,4′-piperidine]]"
8,≤ 10 nM,"c1ccc2c(c1)ncn2-c1ccc2c(c1)CC1(CCN(C3CCC3)CC1)O2 [Compound 32, 5-(1H-Benzo[d]imidazol-1-yl)-1′-cyclobutyl-3H-spiro[benzofuran-2,4′-piperidine]]"
9,≤ 10 nM,"CN1CCN(c2ccc3c(c2)CC2(CCN(C4CCC4)CC2)O3)CC1 [Compound 33, 1′-Cyclobutyl-5-(4-methylpiperazin-1-yl)-3H-spiro[benzofuran-2,4′-piperidine]]"
10,≤ 100 nM,"c1cc2c(cc1N1CCCCC1)CC1(CCN(C3CCC3)CC1)O2 [Compound 34, 1′-Cyclobutyl-5-(piperidin-1-yl)-3H-spiro[benzofuran-2,4′-piperidine]]"
11,≤ 100 nM,"N#Cc1ccc(-c2ccc3c(c2)OC2(CCN(C4CCC4)CC2)C3)cc1 [Compound 35, 4-(1′-Cyclobutyl-3H-spiro[benzofuran-2,4′-piperidine]-6-yl)benzonitrile]"
12,≤ 100 nM,"COc1ccnc(-c2ccc3c(c2)OC2(CCN(C4CCC4)CC2)C3)n1 [Compound 36, 1′-Cyclobutyl-6-(4-methoxypyrimidin-2-yl)-3H-spiro[benzofuran-2,4′-piperidine]]"
13,≤ 100 nM,"c1cnc(-c2ccc3c(c2)OC2(CCN(C4CCC4)CC2)C3)cn1 [Compound 37, 1′-Cyclobutyl-6-(pyrazin-2-yl)-3H-spiro[benzofuran-2,4′-piperidine]]"
14,≤ 100 nM,"CN1CCN(c2ccc3c(c2)OC2(CCN(C4CCC4)CC2)C3)CC1 [Compound 38, 1′-Cyclobutyl-6-(4-methylpiperazin-1-yl)-3H-spiro[benzofuran-2,4′-piperidine]]"
15,≤ 10 nM,"CN(C)Cc1ccc2c(c1)CC1(CCN(C3CCC3)CC1)O2 [Compound 39, 1-(1′-Cyclobutyl-3H-spiro[benzofuran-2,4′-piperidine]-5-yl)-N,N-dimethylmethanamine]"
16,≤ 100 nM,"N#Cc1ccc(NCc2ccc3c(c2)CC2(CCN(C4CCC4)CC2)O3)cc1 [Compound 42, 4-((1′-Cyclobutyl-3H-spiro[benzofuran-2,4′-piperidine]-5-yl)methylamino)benzonitrile]"

row,IC50,Compound
1,≤ 100 nM,"CN(C)Cc1ccc2c(c1)OC1(CCN(C3CCC3)CC1)C2 [Compound 43, 1-(1′-Cyclobutyl-3H-spiro[benzofuran-2,4′-piperidine]-6-yl)-N,N-dimethylmethanamine]"
2,≤ 100 nM,"c1cc2c(cc1CN1CCOCC1)OC1(CCN(C3CCC3)CC1)C2 [Compound 44, 1′-Cyclobutyl-6-(morpholinomethyl)-3H-spiro[benzofuran-2,4′-piperidine]]"
3,≤ 100 nM,"c1cc2c(cc1CN1CCCC1)OC1(CCN(C3CCC3)CC1)C2 [Compound 45, 1′-Cyclobutyl-6-(pyrrolidin-1-ylmethyl)-3H-spiro[benzofuran-2,4′-piperidine]]"
4,≤ 100 nM,"N#Cc1ccc(NCc2ccc3c(c2)OC2(CCN(C4CCC4)CC2)C3)cc1 [Compound 46, 4-((1′-Cyclobutyl-3H-spiro[benzofuran-2,4′-piperidine]-6-yl)methylamino)benzonitrile]"
5,≤ 1000 nM,"Brc1ccc2c(c1)CC1(CCCN(C3CCC3)CC1)O2 (centres unmarked) [Compound 47, 5′-Bromo-1-cyclobutyl-3′H-spiro[azepane-4,2′-benzofuran]]"
6,≤ 10 nM,"N#Cc1ccc(-c2ccc3c(c2)CC2(CCCN(C4CCC4)CC2)O3)cc1 (centres unmarked) [Compound 48, 4-(1-Cyclobutyl-3′H-spiro[azepane-4,2′-benzofuran]-5′-yl)benzonitrile]"
7,≤ 100 nM,"c1cn2cc(-c3ccc4c(c3)CC3(CCCN(C5CCC5)CC3)O4)ccc2n1 (centres unmarked) [Compound 49, 1-Cyclobutyl-5′-(imidazo[1,2-a]pyridin-6-yl)-3′H-spiro[azepane-4,2′-benzofuran]]"
8,≤ 10 nM,"c1ccc2c(c1)ncn2-c1ccc2c(c1)CC1(CCCN(C3CCC3)CC1)O2 (centres unmarked) [Compound 50, 5′-(1H-Benzo[d]imidazol-1-yl)-1-cyclobutyl-3′H-spiro[azepane-4,2′-benzofuran]]"
9,≤ 100 nM,"c1cc2c(cc1N1CCCCC1)CC1(CCCN(C3CCC3)CC1)O2 (centres unmarked) [Compound 51, 1-Cyclobutyl-5′-(piperidin-1-yl)-3′H-spiro[azepane-4,2′-benzofuran]]"
10,≤ 10 nM,"Cc1cn2cc(-c3ccc4c(c3)CC3(CCN(C5CCC5)CC3)O4)ccc2n1 [Compound 54, 1′-Cyclobutyl-5-(2-methylimidazo[1,2-a]pyridin-6-yl)-3H-spiro[benzofuran-2,4′-piperidine]]"
11,≤ 100 nM,"c1cc2cc(-c3ccc4c(c3)CC3(CCN(C5CCC5)CC3)O4)cnc2[nH]1 [Compound 55, 1′-Cyclobutyl-5-(1H-pyrrolo[2,3-b]pyridin-5-yl)-3H-spiro[benzofuran-2,4′-piperidine]]"
12,≤ 10 nM,"c1cc2nc(-c3ccc4c(c3)CC3(CCN(C5CCC5)CC3)O4)ccc2[nH]1 [Compound 56, 1′-Cyclobutyl-5-(1H-pyrrolo[3,2-b]pyridin-5-yl)-3H-spiro[benzofuran-2,4′-piperidine]]"
13,≤ 10 nM,"c1cc2c(cc1-c1ccc3cncn3c1)CC1(CCN(C3CCC3)CC1)O2 [Compound 57, 1′-Cyclobutyl-5-(imidazo[1,5-a]pyridin-6-yl)-3H-spiro[benzofuran-2,4′-piperidine]]"
14,≤ 10 nM,"c1cc2nc(-c3ccc4c(c3)CC3(CCN(C5CCC5)CC3)O4)cnc2[nH]1 [Compound 58, 1′-Cyclobutyl-5-(5H-pyrrolo[2,3-b]pyrazin-2-yl)-3H-spiro[benzofuran-2,4′-piperidine]]"
15,≤ 10 nM,"c1cc2ncc(-c3ccc4c(c3)CC3(CCN(C5CCC5)CC3)O4)cc2[nH]1 [Compound 59, 1′-Cyclobutyl-5-(1H-pyrrolo[3,2-b]pyridin-6-yl)-3H-spiro[benzofuran-2,4′-piperidine]]"

# Same assay, conditions: histamine H3 in vitro assay; read-out: IC50 values
row,IC50,Compound
1,> 1000 nM,"Brc1ccc2c(c1)CC1(CCN(Cc3c[nH]cn3)CC1)O2 [Compound 26, 1′-((1H-Imidazol-4-yl)methyl)-5-bromo-3H-spiro[benzofuran-2,4′-piperidine]]"
